Results on 13 compounds are retold here after ChEMBL document CHEMBL5143631, “nTZDpa (non-thiazolidinedione PPARγ partial agonist) derivatives retain antimicrobial activity without improving renal toxicity” (Bioorg Med Chem Lett, 2022).

One data set concerns Staphylococcus aureus. Put plainly: Antibacterial activity against Staphylococcus aureus assessed as inhibition of bacterial growth. In kind it is functional.
A short description of data set [1]: Toxicity in renal cells (unknown origin) assessed as cell viability at 64 ug/ml relative to control. In kind it is cell-based. The note with it: at 64 µg/mL, read-out: Activity.

In brackets after ≈: the same amount, converted by molar mass. Where only a bound is given, the exact number is not on record here.

Regarding `O=C(O)CCNC(=O)c1c(Oc2ccc(I)cc2)c2cc(Cl)ccc2n1Cc1ccc(Cl)cc1`, the MIC with Staphylococcus aureus is 32 µg/mL (≈ 52.5 µM). Moreover, the viability at 64 ug/ml in data set [1] amounted to 15%. Turning to `O=C(O)c1c(Oc2cccc(I)c2)c2cc(Cl)ccc2n1Cc1ccc(Br)cc1`, in the data set with Staphylococcus aureus, the MIC came out at 8 µg/mL (≈ 13.7 µM). For the same compound, in data set [1], the viability at 64 ug/ml was 15%. For the compound `CN[C@H](CC(C)C)C(=O)N[C@H]1C(=O)N[C@@H](CC(N)=O)C(=O)N[C@H]2C(=O)N[C@H]3C(=O)N[C@H](C(=O)N[C@H](C(=O)O)c4cc(O)cc(O)c4-c4cc3ccc4O)[C@H](O)c3ccc(c(Cl)c3)Oc3cc2cc(c3O[C@@H]2O[C@H](CO)[C@@H](O)[C@H](O)[C@H]2O[C@H]2C[C@](C)(N)[C@H](O)[C@H](C)O2)Oc2ccc(cc2Cl)[C@H]1O` [VANCOMYCIN], the viability at 64 ug/ml in data set [1] was 65%.

In the case of `O=C(O)c1c(Oc2ccc(I)cc2)c2cc(Cl)ccc2n1Cc1ccc(Br)cc1`, the MIC in the data set on Staphylococcus aureus was found to be 2 µg/mL (≈ 3.43 µM). Besides, the viability at 64 ug/ml in data set [1] turned out to be 15%. For the compound `O=C(O)CCNC(=O)c1c(Oc2ccccc2)c2cc(Cl)ccc2n1Cc1ccc(Cl)cc1`, the MIC with Staphylococcus aureus is 4 µg/mL (≈ 8.28 µM). The viability at 64 ug/ml in data set [1] was found to be 20%. In the same order, the values of `Clc1ccc(Cn2c(-c3nnn[nH]3)c(Oc3ccc(I)cc3)c3cc(Cl)ccc32)cc1` are above 64 µg/mL and 25%. For `O=C(O)c1c(Oc2ccc(I)cc2)c2cc(Cl)ccc2n1Cc1ccc(Cl)c(Cl)c1` the same measures were 4 µg/mL (≈ 6.99 µM) and 15%. `O=C(O)c1c(Oc2ccc(I)cc2)c2cc(Cl)ccc2n1Cc1ccc(Cl)cc1`: the minimal inhibitory concentration (MIC) with Staphylococcus aureus was 1 µg/mL (≈ 1.86 µM). Further, in data set [1], the viability at 64 ug/ml stood at 15%.

With `Cc1ccc(Cn2c(C(=O)O)c(Oc3ccc(I)cc3)c3cc(Cl)ccc32)cc1`, the MIC in the data set with Staphylococcus aureus is 8 µg/mL (≈ 15.5 µM). Besides, the viability at 64 ug/ml in data set [1] was found to be 15%. For `O=C(O)c1c(Oc2cccc(I)c2)c2cc(Cl)ccc2n1Cc1ccc(Cl)cc1` the same measures were 1 µg/mL (≈ 1.86 µM) and 10%. For `CC(C)(C)c1ccc(Cn2c(C(=O)O)c(Oc3ccc(I)cc3)c3cc(Cl)ccc32)cc1` the same measures were 1 µg/mL (≈ 1.79 µM) and 10%. Consider `O=C(O)c1c(Oc2ccc(I)cc2)c2cc(Cl)ccc2n1-c1ccc(Cl)cc1`, for which the MIC in the data set with Staphylococcus aureus worked out at 16 µg/mL (≈ 30.5 µM). In addition, the viability at 64 ug/ml in data set [1] turned out to be 20%. As for `Clc1ccc(Cn2c(-c3nnn[nH]3)c(Oc3ccccc3)c3cc(Cl)ccc32)cc1`, in the data set with Staphylococcus aureus, the MIC was 8 µg/mL (≈ 18.3 µM). In data set [1], the viability at 64 ug/ml amounted to 20%.
